Test results reported in patent US20110178041A1, “HETEROCYCLIC BIARYL DERIVATIVE AND PDE INHIBITOR COMPRISING SAME AS ACTIVE INGREDIENT” (priority 2008, published 2011).

The molecules below were run against T1, PDE4B catalytic zone (PDE4Bcat) (Homo sapiens, UniProt Q07343) (assay: Phosphodiesterase 4 inhibitory activity ([3H]-cAMP, recombinant PDE4Bcat)). Conditions: 30° C. 20 minutes, read-out: IC50 (μmol/L) PDE4.
T1 construct: made in house; host or cells: Sf9 insect cells (baculovirus, Bac-to-Bac / Gateway)
T1 sequence (Q07343 330-659 limits assumed): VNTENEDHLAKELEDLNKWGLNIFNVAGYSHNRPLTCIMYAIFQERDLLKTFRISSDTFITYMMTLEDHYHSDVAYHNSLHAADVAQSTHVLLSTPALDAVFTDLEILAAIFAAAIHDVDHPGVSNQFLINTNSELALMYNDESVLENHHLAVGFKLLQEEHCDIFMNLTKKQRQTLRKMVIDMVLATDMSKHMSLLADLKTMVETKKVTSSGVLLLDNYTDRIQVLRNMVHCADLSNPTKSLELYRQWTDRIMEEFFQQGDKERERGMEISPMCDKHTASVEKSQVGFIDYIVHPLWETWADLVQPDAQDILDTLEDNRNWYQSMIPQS
Assay type: biochemical

Structure (SMILES) | IC50 [µmol/L]
CCc1ccc2c(-c3ccc4cc[nH]c(=O)c4c3)ccc(OC)c2n1 [Example 83, 7-(2-Ethyl-8-methoxyquinolin-5-yl)isoquinolin-1(2H)-one] | 0.01 to 0.1
COc1ccc(-c2ccc3[nH]c(=O)ccc3c2)c2cc(C(F)(F)F)sc12 [Example 111] | 0.01 to 0.1
CNc1ccc(-c2ccc3[nH]c(=O)ccc3c2)c2c(Cl)c(C(F)(F)F)nn12 [Example 65, 6-(3-Chloro-7-methylamino-2-trifluoromethylpyrazolo[1,5-a]pyridin-4-yl)quinolin-2(1H)-one] | < 0.01
COc1ccc(-c2ccc3[nH]c(=O)ccc3c2)c2c1OCC(=O)N2 [Example 74, 8-Methoxy-5-(2-oxo-1,2-dihydroquinolin-6-yl)-2H-benzo[b][1,4]oxazin-3(4H)-one] | 0.01 to 0.1
CNc1ccc(-c2ccc3c(=O)[nH]cc(Cl)c3c2)c2cc(C(F)(F)F)nn12 [Example 138, 4-Chloro-6-(7-(methylamino)-2-trifluoromethylpyrazolo[1,5-a]pyridin-4-yl)isoquinolin-1(2H)-one] | < 0.01
COc1ccc(-c2ccc3[nH]c(=O)ccc3c2)n2cc(C(F)(F)F)nc12 [Example 90, 6-(8-Methoxy-2-trifluoromethylimidazo[1,2-a]pyridin-5-yl)quinolin-2(1H)-one] | 0.01 to 0.1
COc1ccc(-c2ccc3[nH]c(=O)ccc3c2)c2cc(C(F)(F)F)nn12 [Example 50, 6-(7-Methoxy-2-trifluoromethylpyrazolo[1,5-a]pyridin-4-yl)quinolin-2(1H)-one] | < 0.01
CNc1ccc(-c2ccc3c(=O)[nH]cc(Cl)c3c2)n2cc(C(F)(F)F)nc12 [Example 144, 4-Chloro-6-(8-(methylamino)-2-trifluoromethylimidazo[1,2-a]pyridin-5-yl)isoquinolin-1(2H)-one] | < 0.01
COc1ccc(-c2ccc3[nH]c(=O)ccc3c2)c2cc(C3CC3)nn12 [Example 114, 6-(2-Cyclopropyl-7-methoxypyrazolo[1,5-a]pyridin-4-yl)quinolin-2(1H)-one] | < 0.01
CNc1ccc(-c2ccc3c(=O)[nH]cc(Cl)c3c2)n2c(Cl)c(C(F)(F)F)nc12 [Example 145, 4-Chloro-6-(3-chloro-8-(methylamino)-2-trifluoromethylimidazo[1,2-a]pyridin-5-yl)isoquinolin-1(2H)-one] | < 0.01
COc1ccc(-c2ccc3c(ccc(=O)n3C)c2)c2cc(C(F)(F)F)nn12 [Example 91, 6-(7-Methoxy-2-trifluoromethylpyrazolo[1,5-a]pyridin-4-yl)-1-methyl quinolin-2(1H)-one] | < 0.01
COc1ccc(-c2ccc3[nH]c(=O)ccc3c2)c2c1OCNC2=O [Example 72, 8-Methoxy-5-(2-oxo-1,2-dihydroquinolin-6-yl)-2H-benzo[e][1,3]oxazin-4-(3H)-one] | 0.01 to 0.1
COc1ccc(-c2ccc3[nH]c(=O)ccc3c2)c2sc(C(F)(F)F)nc12 [Example 71, 6-(4-Methoxy-2-trifluoromethylbenzo[d]thiazol-7-yl)quinolin-2(1H)-one] | < 0.01
COc1ccc(-c2ccc3c(c2)CC(C)NC3=O)c2cc(C(F)(F)F)nn12 (stereo not shown) [Example 122, 6-(7-Methoxy-2-trifluoromethylpyrazolo[1,5-a]pyridin-4-yl)-3-methyl-3,4-dihydroisoquinolin-1(2H)-one] | 0.01 to 0.1
COc1ccc(-c2ccc3c(c2)CCC(=O)N3)c2cc(C(F)(F)F)nn12 [Example 56, 6-(7-Methoxy-2-trifluoromethylpyrazolo[1,5-a]pyridin-4-yl)-3,4-dihydroquinolin-2(1H)-one] | 0.01 to 0.1
Nc1ccc(-c2ccc3c(=O)[nH]cc(Cl)c3c2)n2cc(C(F)(F)F)nc12 [Example 146, 6-(8-Amino-2-trifluoromethylimidazo[1,2-a]pyridin-5-yl)-4-chloro-isoquinolin-1(2H)-one] | 0.01 to 0.1
CCc1cc2c(-c3ccc4[nH]c(=O)ccc4c3)ccc(OC)n2n1 [Example 87, 6-(2-Ethyl-7-methoxypyrazolo[1,5-a]pyridin-4-yl)quinolin-2(1H)-one] | 0.01 to 0.1
COc1ccc(-c2ccc3c(c2)CCC(=O)N3C)c2c(Cl)c(C(F)(F)F)nn12 [Example 117, 6-(3-Chloro-7-methoxy-2-trifluoromethylpyrazolo[1,5-a]pyridin-4-yl)-1-methyl-3,4-dihydroquinolin-2(1H)-one] | 0.01 to 0.1
Nc1ccc(-c2ccc3[nH]c(=O)ccc3c2)c2cc(C(F)(F)F)nn12 [Example 140, 6-(7-Amino-2-trifluoromethylpyrazolo[1,5-a]pyridin-4-yl)quinolin-2(1H)-one] | < 0.01
COc1ccc(-c2ccc3c(=O)[nH]ccc3c2)c2cccnc12 [Example 80, 6-(8-Methoxyquinolin-5-yl)isoquinolin-1(2H)-one] | 0.01 to 0.1
COc1ccc(-c2ccc3[nH]c(=O)ccc3c2)c2cncnc12 [Example 88, 6-(8-methoxyquinazolin-5-yl)quinolin-2(1H)-one] | 0.01 to 0.1
COc1ccc(-c2ccc3c(=O)[nH]cc(Cl)c3c2)n2c(Cl)c(C(F)(F)F)nc12 [Example 126, 4-Chloro-6-(3-chloro-8-methoxy-2-trifluoromethylimidazo[1,2-a]pyridin-5-yl)isoquinolin-1(2H)-one] | < 0.01

Structure (SMILES) | IC50 [µmol/L]
COc1ccc(-c2ccc3[nH]c(=O)ccc3c2)c2ccc(C(F)(F)F)nc12 [Example 69, 8-Methoxy-2-trifluoromethyl-5,6′-biquinolin-2′(1′H)-one] | 0.01 to 0.1
Nc1ccc(-c2ccc3c(=O)[nH]cc(Cl)c3c2)c2cc(C(F)(F)F)nn12 [Example 141, 6-(7-Amino-2-trifluoromethylpyrazolo[1,5-a]pyridin-4-yl)-4-chloro isoquinolin-1(2H)-one] | 0.01 to 0.1
CCOC(=O)Cn1c(=O)ccc2cc(-c3ccc(OC)n4nc(C(F)(F)F)cc34)ccc21 [Example 92, Ethyl 2-(6-(7-methoxy-2-trifluoromethylpyrazolo[1,5-a]pyridin-4-yl)-2-oxo-quinolin-2(1H)-yl)acetate] | 0.01 to 0.1
COc1ccc(-c2ccc3[nH]c(=O)ccc3c2)c2nc(C(F)(F)F)nn12 [Example 70, 6-(5-Methoxy-2-trifluoromethyl[1,2,4]triazolo[1,5-a]pyridin-8-yl) quinolin-2(1H)-one] | < 0.01
CCc1nc2c(OC)ccc(-c3ccc4[nH]c(=O)ccc4c3)c2o1 [Example 112, 6-(2-Ethyl-4-methoxybenzo[d]oxazol-7-yl)quinolin-2(1H)-one] | < 0.01
CNc1ccc(-c2ccc3c(ccc(=O)n3C)c2)c2c(Cl)c(C(F)(F)F)nn12 [Example 137] | < 0.01
COc1ccc(-c2ccc3[nH]c(=O)ccc3c2)c2c(Cl)c(C(F)(F)F)nn12 [Example 61, 6-(3-Chloro-7-methoxy-2-trifluoromethylpyrazolo[1,5-a]pyridin-4-yl)quinolin-2(1H)-one] | < 0.01
CCc1ccc2c(-c3ccc4[nH]c(=O)ccc4c3)ccc(OC)c2n1 [Example 67, 2-Ethyl-8-methoxy-5,6′-biquinolin-2′(1′H)-one] | 0.01 to 0.1
COc1ccc(-c2cc(=O)[nH]c3ccccc23)c2cc(C(F)(F)F)nn12 [Example 51, 4-(7-Methoxy-2-trifluoromethylpyrazolo[1,5-a]pyridin-4-yl)quinolin-2(1H)-one] | 0.01 to 0.1
COc1ccc(-c2ccc3c(c2)CC(=O)N3)c2cc(C(F)(F)F)nn12 [Example 57, 5-(7-Methoxy-2-trifluoromethylpyrazolo[1,5-a]pyridin-4-yl)indolin-2-one] | 0.01 to 0.1
COc1ccc(-c2ccc3[nH]c(=O)ccc3c2)c2cccnc12 [Example 120, 6-(8-Methoxyquinolin-5-yl)quinolin-2(1H)-one] | 0.01 to 0.1
COc1ccc(-c2cccc3c(=O)[nH]ccc23)c2cc(C(F)(F)F)nn12 [Example 52, 5-(7-Methoxy-2-trifluoromethylpyrazolo[1,5-a]pyridin-4-yl)iso quinolin-1(2H)-one] | 0.01 to 0.1
COc1ccc(-c2ccc3[nH]c(=O)ccc3c2)c2cc(C(F)(F)F)oc12 [Example 119, 6-(7-Methoxy-2-trifluoromethylbenzofuran-4-yl)quinolin-2(1H)-one] | < 0.01
COc1ccc(-c2ccc3c(=O)[nH]cc(Cl)c3c2)c2c(Cl)c(C(F)(F)F)nn12 [Example 125, 4-Chloro-6-(3-chloro-7-methoxy-2-trifluoromethylpyrazolo[1,5-a]pyridin-4-yl)isoquinolin-1(2H)-one] | < 0.01
COc1ccc(-c2ccc3[nH]c(=O)ccc3c2)c2nccnc12 [Example 86, 6-(8-Methoxyquinoxalin-5-yl)quinolin-2(1H)-one] | < 0.01
COc1ccc(-c2ccc3[nH]c(=O)ccc3c2)c2[nH]c(C(F)(F)F)nc12 [Example 118, 6-(4-Methoxy-2-trifluoromethyl-1H-benzo[d]imidazol-7-yl)quinolin-2(1H)-one; or 6-(7-methoxy-2-trifluoromethyl-1H-benzo[d]imidazol-4-yl)quinolin-2(1H)-one] | 0.01 to 0.1
COc1ccc(-c2ccc3c(ccc(=O)n3CC(=O)O)c2)c2cc(C(F)(F)F)nn12 [Example 93, 2-(6-(7-Methoxy-2-trifluoromethylpyrazolo[1,5-a]pyridin-4-yl)-2-oxoquinolin-2(1H)-yl)acetic acid] | 0.01 to 0.1
COc1ccc(-c2ccc3c(ccc(=O)n3Cc3ccccc3)c2)c2cc(C(F)(F)F)nn12 [Example 94, 1-Benzyl-6-(7-methoxy-2-trifluoromethylpyrazolo[1,5-a]pyridin-4-yl)quinolin-2(1H)-one] | < 0.01
CNc1ccc(-c2ccc3c(c2)CCNC3=O)c2c(Cl)c(C(F)(F)F)nn12 [Example 66] | < 0.01
COc1ccc(-c2ccc3cc[nH]c(=O)c3c2)c2cc(C(F)(F)F)nn12 [Example 54, 7-(7-Methoxy-2-trifluoromethylpyrazolo[1,5-a]pyridin-4-yl)iso quinolin-1(2H)-one] | < 0.01
CNc1ccc(-c2ccc3c(=O)[nH]cc(Cl)c3c2)c2c(Cl)c(C(F)(F)F)nn12 [Example 139, 4-Chloro-6-(3-chloro-7-(methylamino)-2-trifluoromethylpyrazolo[1,5-a]pyridin-4-yl)isoquinolin-1(2H)-one] | < 0.01
